Reference: patent publication US5286733A, “Substituted 3-piperidinealkanoates and alkanones and compositions and method of use thereof” (Sterling Winthrop Inc., priority 1992, dated 1994)
Read-outs that look alike come from different tables or passages of the source.

Target: T1, sigma receptors (Cavia porcellus, UniProt Q60492)
T1 construct: Brain tissue was prepared from male Hartley guinea pigs; tissue Hazelton Labs, Denver, Pa; (animals); host or cells: guinea pig brain membranes
Experiment: sigma receptor binding activity, [3H]-(+)-pentazocine binding to guinea pig brain membranes
Parameters: species or system male Hartley guinea pigs
Settings: for inhibition at 10 µM: read-out: Percent Inhibition (of [3H]-(+)-pentazocine binding)
Method: Brain tissue was prepared from male Hartley guinea pigs (Hazelton Labs, Denver, Pa.) which were anesthetized with CO2 and sacrificed by decapitation. All animal care and use procedures were in accord with the "Guide for the Care and Use of Laboratory Animals" (NIH Publ. No 86-23, 1985). Homogenization was performed in 10 volumes (wt/vol) of 0.32M sucrose with a Brinkmann Polytron at setting 5, 30 sec. The homogenate was centrifuged at 900 x g for 10 min at 4° C., and the supernatant was collected and centrifuged at 22,000 x g for 20 min at 4° C. The pellet was resuspended in 10 volumes of Tris-HCl buffer (50 mM, pH 7.4), incubated at 37° C. for 30 min, and centrifuged at 22,000 x g for 20 min at 4° C. Following this, the pellet was resuspended in Tris buffer and frozen in 5-10 mL aliquots corresponding to a tissue concentration of 100 mg/mL, at -70° C. Binding characteristics of the membranes were stable for at least one month when stored at -70° C.
On the day of the assay, membrane aliquots were thawed, resuspended in fresh Tris-HCl buffer and stored on ice until use. Each assay tube contained 100 μL of [3H]-(+)-pentazocine at a final concentration of approximately 0.5 nM, 100 μL of various concentrations of the compounds of interest, 500 μL of the tissue suspension and 300 μL of buffer to a final assay volume of 1 mL and a final tissue concentration of approximately 8 mg/tube, corresponding to approximately 0.15 mg protein/tube. Nonspecific binding was defined by addition of a final concentration of 1 μM haloperidol to blank tubes. All tubes were incubated at 37° C. for 150 min before termination of the reaction by rapid filtration over Whatman GF/B glass fiber filters that were presoaked in a solution of 0.5% polyethyleneimine for at least 1 hr prior to use. Filters were washed with three 4 ml volumes of cold Tris-HCl buffer.
Following addition of scintillation cocktail, samples were allowed to equilibrate for at least 4 hr. The amount of bound radioactivity was determined by liquid scintillation spectrometry using a Beckman LS 5000 TA liquid scintillation counter with an efficiency for tritium of approximately 60%. The results are reported as a percent (%) inhibition of binding at 10 μM.
Scatchard parameters and inhibition constants (Ki values) for the binding of test compounds were also calculated using the EBDA/LIGAND program (McPherson, J. Pharmacol. Meth. 1985, 14, 213-228), purchased from Elsevier/Biosoft, Inc. The Ki values are expressed as the mean ±SEM of at least three separate determinations performed in triplicate.

[1] = at 10 μM, guinea pig brain membranes, approximately 0.5 nM [3H]-(+)-pentazocine, 37° C., 150 min

T1 sequence (Q60492 whole entry): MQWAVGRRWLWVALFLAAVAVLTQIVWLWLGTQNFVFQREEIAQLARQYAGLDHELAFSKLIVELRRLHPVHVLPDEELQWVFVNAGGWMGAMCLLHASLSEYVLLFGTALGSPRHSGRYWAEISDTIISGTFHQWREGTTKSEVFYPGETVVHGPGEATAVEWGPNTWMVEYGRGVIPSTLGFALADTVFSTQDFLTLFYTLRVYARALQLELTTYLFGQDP

With CCOC(=O)CC[C@]1(C)[C@H](C)CCN(C)[C@H]1C (relative stereo) [Example 1, ethyl 3-(1,2,3,4-tetramethyl-3-piperidine)propanoate] as the molecule, how does the inhibition at 10 µM [1] read?
The inhibition at 10 µM was 70%.

With C[C@@H]1CCN(C)[C@@H](C)[C@]1(C)CCC(=O)CCC1CCCC1 (relative stereo) [Example 2, 1-cyclopentyl-5-(1,2,3,4-tetramethyl-3-piperidinyl)-3-pentanone] as the molecule, how does the inhibition at 10 µM read?
Its inhibition at 10 µM is 100%.

Which inhibition at 10 µM [1] does the source give for C[C@@H]1CCN[C@@H](C)[C@]1(C)CCC(=O)CCC1CCCC1 (relative stereo) [Example 3b, 1-cyclopentyl-5-(2,3,4-trimethyl-3-piperidinyl)-3-pentanone] here?
Its inhibition at 10 µM is 96%.

For C[C@@H]1CCN(CC2(O)CC2)[C@@H](C)[C@]1(C)CCC(=O)CCC1CCCC1 (relative stereo) [Example 3c], which inhibition at 10 µM [1] is on record?
Its inhibition at 10 µM is 98%.

How did the inhibition at 10 µM turn out when C[C@@H]1CCN(C)[C@@H](C)[C@]1(C)CCC(=O)c1ccoc1 (relative stereo) [Example 4, 1-(3-furanyl)-3-(1.2.3.4-tetramethyl-3-piperidinyl)-1-propanone] was run?
The inhibition at 10 µM was 78%.

Which inhibition at 10 µM does the source give for C[C@@H]1CCN(C)[C@@H](C)[C@]1(C)CCC(=O)c1ccco1 (relative stereo) [Example 5, 1-(2-furanyl)-3-(1,2,3,4-tetramethyl-3-piperidinyl)-1-propanone] here?
Its inhibition at 10 µM is 57%.

Which results are given for CCOC(=O)CC[C@]1(C)[C@H](C)CCN(Cc2ccccc2)[C@H]1C (relative stereo) [Example 6, ethyl 3-[2,3,4-trimethyl-1-(phenylmethyl)-3-piperidine)propanoate]?
inhibition at 10 µM [1]: 99%; Ki (mean ±SEM of at least three separate determinations performed in triplicate, [3H]-(+)-pentazocine, EBDA/LIGAND): 39 ± 5 nM

How did the inhibition at 10 µM [1] turn out when CC1N(CC2(O)CC2)CCC2CCCCC21CCC(=O)CCC1CCCC1 (stereo not drawn) [Example 10] was run?
Its inhibition at 10 µM is 84%.
